± gives the expanded uncertainty stated by the source.
Columns and labels:
[1] = Liquid; for mass density: 293.15 K, 101.33 kPa
[2] = refractive index (Na D-line) (dimensionless); conditions: 293.15 K; 101.33 kPa; Liquid; Standard Abbe refractometry

mass density [1] [kg/m3]	Structure (SMILES)	mass density ([1]; Vibrating tube method) [kg/m3]	Normal boiling temperature [1] [°C]	refractive index [2]
–	CCOC(=O)c1ccccc1C(=O)OCC [diethyl phthalate]	1117.2 ± 0.6	298.02 ± 0.1	1.5003 ± 0.0008
992.7 ± 0.5	CCC(=O)O [propanoic acid]	–	141.0 ± 0.1	1.3811 ± 0.0008
